In patent US20250213561A1, “SELECTIVE HYPOTHALAMUS PERMEABLE HDAC6 INHIBITORS FOR TREATMENT OF LEPTIN-RESISTANT OBESITY” (The Children’s Medical Center Corporation, priority 2022, published 2025):

Columns and labels:
HDAC6 = experiment: Ac-tubulin immunoblotting in HEK293 cells; type: cell-based
p-STAT3^Tyr705 = experiment: Leptin-stimulated hypothalamic STAT3 Tyr705 phosphorylation in DIO mice; type: in vivo; conditions: 45 minutes after leptin 1 mg/kg i.p.
Method: DIO mice were pretreated with ACY775 (10 mg/kg/day, i.p.) or vehicle for 3 days, which was followed by a last injection of ACY775 (or vehicle) in the morning of fourth day. 6 hours later mice were injected with saline or leptin (1 mg/kg, i.p.) and hypothalamus were extracted after 45 minutes following the leptin injection. Representative immunoblots for STAT3^Tyr705 phosphorylation and total STAT3 from the hypothalamus. Quantification of the ratio of p-STAT3^Tyr705 to total-STAT3 signal in the immunoblots. The results were reproduced in three independent experiments. The results were analyzed hourly.
DIO mice were pretreated with ACY775 (10 mg/kg/day, i.p.) or vehicle for 3 days, which was followed by a last injection of ACY775 (or vehicle) in the morning of fourth day. 6 hours later mice were injected with saline or leptin (1 mg/kg, i.p.) and the hypothalamus were extracted after 45 minutes following the leptin injection.
6 hours later mice were injected with saline or leptin (1 mg/kg, i.p.) and hypothalamus were extracted after 45 minutes following the leptin injection. Immunoblots for STAT3^Tyr705 phosphorylation and total STAT3 from the hypothalamus were made to quantify the ratio of p-STAT3^Tyr705 to total-STAT3 signal in the immunoblots. The results were reproduced in two independent experiments.
DIO mice were pretreated with ricolinostat (50 mg/kg/day, i.p.) or vehicle 3 days, which was followed by a last injection of ricolinostat (or vehicle) in the morning of fourth day. 6 hours later mice were injected with saline or leptin (1 mg/kg, i.p.) and the hypothalamus were extracted after 45 minutes following the leptin injection. Immunoblots were performed for STAT3^Tyr705 phosphorylation and total STAT3 from the hypothalamus. The ratio of p-STAT3^Tyr705 to total STAT3 signal in the immunoblots was quantified.

DIO mice [1] = experiment: Single dose food intake in 24 h fasted DIO mice; type: in vivo; conditions: ACY775 10 mg/kg, ACY738 50 mg/kg i.p.
Method: Food intake was analyzed hourly until 3:00 am. […] DEXA scans were performed in two different cohorts.

DIO mice [2] = experiment: CLAMS metabolic cages in DIO mice; type: in vivo; conditions: for energy expenditure: 3 days, ACY775 10 mg/kg, ACY738 50 mg/kg i.p.
Method: Diet induced obese (DIO) mice were placed into metabolic cages and received ACY775 (10 mg/kg, i.p., n=7) or vehicle (n=8) once a day for 3 days. Energy expenditure, respiratory exchange ratios (RER; VCO2/VO2), ambulatory count (physical activity) from each group of mice were determined. Bar graphs represent average of two dark (8-20 and 32-44 hr) and two light cycles ([…]).
Comprehensive Lab Animal Monitoring System (CLAMS) was used to measure metabolic parameters such as energy expenditure (EE) and respiratory exchange ratio (RER) and physical activity levels in Vehicle- and ACY775-treated mice.

DIO mice [3] = experiment: Conditioned place preference (CPP) assay in DIO mice; type: in vivo; conditions: for time and frequency in the food zone / time and frequency in the food-containing white side chambers: fed and fasting conditions; for cumulative duration in the dark side chambers: fed or fasting conditions
Method: DIO mice were treated with vehicle or ACY775 (10 mg/kg, i.p., once a day) for 3 days. On the fourth day, 1 h after the beginning of the light cycle, the mice were administered vehicle or ACY775 (10 mg/kg, i.p.) and the conditioned place preference (CPP) assay under the ad libitum feeding condition was utilized. The CPP assay was performed 6 h later under the ad libitum feeding condition (n=10 mice for both the Vehicle- and ACY775-treated groups). CPP assay under a 20-h fasting condition was also performed. DIO mice were treated with vehicle or ACY775 (10 mg/kg, i.p.) once a day and fasted for 15 h after the third injection. On the fourth day, 1 h after the beginning of the light cycle, the mice were administered vehicle or ACY775 (10 mg/kg body weight, i.p.) and the CPP assay was performed 5 h after this injection under the fasting condition (n=10 mice for both the Vehicle- and ACY775-treated groups).
Measurements were made of the total distance that the mice traveled during the CPP test, the average velocity of movement during the assay, the total time the mice spent in the dark chamber during the test; the frequency with which the mice traveled to the dark chamber during the test; the total time the mice spent in the food-paired white chamber; the frequency with which the mice traveled to the food paired white chamber; the total time the mice spent in the food-containing zone within the food-paired side chamber; and the frequency with which the mice traveled to the food-containing zone within the food-paired side chamber during the test.

HDAC6-KO DIO mice = experiment: Chronic treatment of DIO WT versus HDAC6 KO mice; type: in vivo; conditions: for blood glucose, serum insulin and leptin levels, WT versus HDAC6 KO / fat mass and fat %, WT versus HDAC6 KO / food intake, WT versus HDAC6 KO / glucose tolerance and insulin sensitivity (GTT, ITT), WT versus HDAC6 KO / lean mass, WT versus HDAC6 KO / body weight, WT versus HDAC6 KO: DIO mice; for body weight, WT versus HDAC6 KO: 3 weeks, ACY775 10, ACY738 50, Tubastatin A 25 mg/kg/day i.p.

| SMILES | tubulin acetylation (HDAC6 inhibitor activity in cells) (HDAC6) | leptin-stimulated hypothalamic p-STAT3^Tyr705 (p-STAT3^Tyr705) | food intake after a single dose (DIO mice [1]) | energy expenditure (DIO mice [2]) | physical activity level (DIO mice [2]; dark and light cycles) | time and frequency in the food zone (DIO mice [3]) | time and frequency in the food-containing white side chambers (DIO mice [3]) | cumulative duration in the dark side chambers (DIO mice [3]) | blood glucose, serum insulin and leptin levels, WT versus HDAC6 KO (HDAC6-KO DIO mice) | fat mass and fat %, WT versus HDAC6 KO (HDAC6-KO DIO mice) | food intake, WT versus HDAC6 KO (HDAC6-KO DIO mice) | glucose tolerance and insulin sensitivity (GTT, ITT), WT versus HDAC6 KO (HDAC6-KO DIO mice) | lean mass, WT versus HDAC6 KO (HDAC6-KO DIO mice) | body weight, WT versus HDAC6 KO (HDAC6-KO DIO mice) | body weight in HDAC6 KO mice (HDAC6-KO DIO mice; DIO HDAC6 KO mice) |
| --- | --- | --- | --- | --- | --- | --- | --- | --- | --- | --- | --- | --- | --- | --- | --- |
| O=C(NO)c1cnc(NC2(c3cccc(F)c3)CCCCC2)nc1 [ACY775, 2-[[1-(3-fluorophenyl)cyclohexyl]amino]-N-hydroxy-5-pyrimidinecarboxamide] | increases tubulin acetylation | increased significantly | significantly reduced/blocked the food intake | higher in the both dark and light cycle | not different | spent significantly shorter time and displayed lower frequency of appearance | spent significantly shorter time and had lower frequency of appearance | no significant differences in cumulative duration | all significantly higher in the ACY775-treated HDAC6 KO group | significantly lower in the wt group compared to the HDAC6 KO group | blocked in the HDAC6 KO mice | could not increase glucose tolerance and insulin sensitivity in the HDAC6 KO mice | not different | highly significant decrease in the bodyweight of the WT DIO mice when compared to HDAC6 KO DIO mice |  |
| O=C(NO)c1cnc(NC2(c3ccccc3)CC2)nc1 [ACY738] | inhibits the HDAC6 activity | substantially increased | significantly reduced/blocked the food intake | higher energy expenditure in light cycle, though without significant difference in dark cycle |  | spent significantly shorter time and displayed lower frequency of appearance | spent similar time and frequency of appearance | no significant differences in cumulative duration | all significantly higher in the ACY738-treated HDAC6 KO group | significantly lower in the wt group compared to the HDAC6 KO group | significantly higher in the HDAC6 KO group | did not improve glucose tolerance and increase insulin sensitivity in the HDAC6 KO mice | not different | major difference | slight decrease |
